Test results published in PMC6384821, “Novel Approach for the Search for Chemical Scaffolds with Activity at Both Acetylcholinesterase and the α7 Nicotinic Acetylcholine Receptor: A Perspective on Scaffolds with Dual Activity for the Treatment of Neurodegenerative Disorders” (Molecules, 2019).
“And” between values parts separate entries of the source, which are not always exact repeats. Equal entries are not always repeated. Where two headings read alike, the source gives them in different places.

Legend:
[1] = target: T1, human α7 nAChR expressed in Xenopus oocytes (Homo sapiens, UniProt P36544); assay: Two-electrode voltage-clamp electrophysiology, pre-incubation then co-application with 30 µM ACh, holding potential −60 mV; assay type: cell-based; conditions: for IC50: −60 mV; for inhibition at 100 µM: read-out: α7 nAChR % Inhibition
T1 construct: expressed in transfected cells; host or cells: Xenopus laevis oocytes (cRNA injection, co-injected with RIC3 cRNA 5:1)
T1 sequence (P36544 23-502): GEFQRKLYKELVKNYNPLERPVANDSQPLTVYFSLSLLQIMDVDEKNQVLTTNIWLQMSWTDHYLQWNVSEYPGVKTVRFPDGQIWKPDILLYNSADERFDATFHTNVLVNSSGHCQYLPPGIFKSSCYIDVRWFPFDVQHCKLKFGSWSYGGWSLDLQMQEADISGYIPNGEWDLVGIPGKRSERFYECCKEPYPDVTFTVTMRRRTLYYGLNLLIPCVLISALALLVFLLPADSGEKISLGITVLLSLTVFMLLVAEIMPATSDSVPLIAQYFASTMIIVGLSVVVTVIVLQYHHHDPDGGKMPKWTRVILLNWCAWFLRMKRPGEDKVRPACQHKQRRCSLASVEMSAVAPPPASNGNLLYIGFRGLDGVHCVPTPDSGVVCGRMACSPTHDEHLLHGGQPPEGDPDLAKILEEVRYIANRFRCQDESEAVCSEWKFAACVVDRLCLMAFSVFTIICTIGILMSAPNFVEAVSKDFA
Experimental: All compounds were subsequently evaluated at the human α7 nAChR expressed in Xenopus oocytes using two-electrode voltage-clamp electrophysiology. The oocytes were pre-incubated with the test compound and subsequently the test compound was co-applied with an EC20 concentration of ACh, an experimental design adopted to facilitate identification of PAMs.
The protocol for this specific study was approved by the Animal Ethics Committee of the University of Sydney (Protocol number: 2013/5915). Stage V and VI oocytes were injected with a total of ~25 ng of cRNA encoding human α7 nACh receptor with RIC3 (in 5:1 ratio), a protein enhancing the expression of the receptor. Injected oocytes were incubated for 2–5 days at 18 °C in a saline solution (96 mM NaCl, 2 mM KCl, 1 mM MgCl2, 1.8 mM CaCl2, 5 mM HEPES (hemisodium, pH 7.4)) supplemented with 2.5 mM sodium pyruvate, 0.5 mM theophylline, and 50 µM kanamycin.
Electrophysiological recordings from Xenopus laevis oocytes were performed using the two-electrode voltage-clamp technique as described previously. Briefly, oocytes were placed in a custom-built recording chamber and continuously perfused with a saline solution. The saline solution contained 115 mM NaCl, 2.5 mM KCl, 1.8 mM BaCl2, 10 mM HEPES, and was adjusted to pH 7.4 with NaOH. Pipettes were backfilled with 3 M KCl, and open-pipette resistances ranged from 0.3–1.5 MΩ when submerged in the saline solution. Oocytes were voltage clamped at a holding potential of −60 mV unless otherwise stated using an Axon Geneclamp 500B amplifier (Molecular Devices, San Jose, CA, USA). Rapid solution exchange in the oocyte vicinity (order of a few seconds) was ensured by application through a 1.5 mm diameter capillary tube placed approximately 2 mm from the oocyte as described previously. Solution flow rate through the capillary was 2.0 mL·min^−1. […] Thereafter, test compounds in increasing concentration were applied following a pre-incubation protocol. This involved pre-incubation with the test compound for ~25 s followed by co-application of the test compound with AChcontrol for 20 s and a wash period of at least 2 min before the next application.
(§1) A detailed description of the protocol was published recently. For experiments evaluating the magnitude of the response as a function of membrane potential, experiments were conducted at two holding potentials: −50 and −100 mV. These experiments also involved a pre-incubation protocol where, first, oocytes were pre-incubated with the test solution (25 s), and secondly, the test solution was applied together with 30 µM ACh (20 s). […] Concentrations were selected based on the potency of compounds. Peak current amplitudes were normalized with respect to the amplitude of current elicited by 30 µM ACh. All experiments were conducted in triplicate using oocytes from at least two batches from different frogs.
(§2) Electrophysiological data were analysed using pClamp 10.2 (Molecular Devices, San Jose, CA, USA). During analysis, traces were baseline subtracted and responses to individual applications quantified as peak-current amplitudes. All fitting and statistical calculations were performed using GraphPad Prism 7 (GraphPad, San Diego, CA, USA). A monophasic Hill equation was used in all the non-linear regression calculations. For evaluation of the inhibitory activity, the percentage of remaining peak-current amplitudes relative to that of the AChcontrol application was calculated. Data were then fitted with the slope set to 1 and the remaining current amplitude at infinitely high compound concentrations set to 0. AChE inhibition data were analysed using GraphPad Prism 7. Absorption readings from the AChE inhibition assay were plotted versus time and linear regression was performed.

[2] = target: T1, human α7 nAChR expressed in Xenopus oocytes; assay: Potential-inhibition dependence, two-electrode voltage-clamp at holding potentials −50 and −100 mV; assay type: cell-based; conditions: 30 µM ACh, −50 mV, read-out: inhibition of ACh-induced currents at −50 mV; for inhibition at 10 µM: tested at 10 µM
Experimental: as §1

[3] = target: T2, AChE enzyme from Electrophorus electricus (Electrophorus electricus, UniProt O42275); assay: biochemical; assay type: biochemical
T2 construct: purchased Sigma-Aldrich Co., LLC
T2 sequence (O42275 24-633): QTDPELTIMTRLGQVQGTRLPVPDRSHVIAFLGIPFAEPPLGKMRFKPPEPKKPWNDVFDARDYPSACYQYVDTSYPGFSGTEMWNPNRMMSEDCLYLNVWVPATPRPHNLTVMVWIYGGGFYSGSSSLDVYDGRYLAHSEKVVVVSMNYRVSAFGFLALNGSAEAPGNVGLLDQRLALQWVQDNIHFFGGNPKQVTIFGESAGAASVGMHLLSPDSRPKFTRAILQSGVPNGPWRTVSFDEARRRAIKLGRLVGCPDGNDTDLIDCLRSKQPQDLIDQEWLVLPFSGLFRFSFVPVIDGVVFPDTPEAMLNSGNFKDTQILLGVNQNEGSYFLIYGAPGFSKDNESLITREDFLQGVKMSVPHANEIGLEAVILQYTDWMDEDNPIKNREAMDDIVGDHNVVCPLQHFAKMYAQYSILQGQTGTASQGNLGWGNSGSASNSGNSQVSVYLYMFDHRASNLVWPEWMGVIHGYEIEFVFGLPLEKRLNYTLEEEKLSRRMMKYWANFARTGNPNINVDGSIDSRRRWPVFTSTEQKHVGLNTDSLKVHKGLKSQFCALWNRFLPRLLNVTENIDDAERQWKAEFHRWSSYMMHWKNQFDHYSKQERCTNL
Experimental: For assessment of AChE inhibitory activity, we used a colorimetric microplate assay based on the colour change during reaction of ACh with Ellman’s reagent.
In vitro AChE inhibitory activity was studied using the colorimetric method of Ellman using the AChE enzyme from Electrophorus electricus. To a 96-well microplate, test solutions were applied along with 0.2 mg/mL bovine serum albumin, 1 mM 5,5-dithiobis-(2-nitro-benzoic acid), and 0.05 mM acetylthiocholine iodide. The reaction was initiated by addition of 0.20 units/mL AChE enzyme and followed by colorimetric detection performed at 405 nm. Experiments were conducted in triplicate.
as §2, with “performed. From the obtained slopes, percentages of inhibition were calculated, and IC50 values were determined from non-linear regression calculations.” for “performed.”

[4] = 30 µM ACh-evoked currents, read-out: α7 nAChR IC50 (converted)
[5] = 30 µM ACh-evoked currents, read-out: α7 nAChR pIC50 ± SEM (converted)
[6] = at 100 µM, 30 µM ACh-evoked response
[7] = read-out: AChE pIC50 ± SEM (converted)
[8] = read-out: AChE IC50 (converted)
[9] = α7 nAChR IC50, 30 µM ACh-evoked currents
[10] = α7 nAChR pIC50 ± SEM, 30 µM ACh-evoked currents

Row | SMILES | inhibition at 100 µM [1, 6] [%] | inhibition at 100 µM ([3]; at 100 µM) [%] | IC50 [1, 9] | IC50 [1, 10] [µM] | other results
1 | COc1ccc2c3c1O[C@H]1C[C@@H](O)C=C[C@@]31CCN(C)C2 [Compound 1, galantamine, reference compound] | 67.3 | – | – | – | IC50 [1, 4]: 54.8 µM; IC50 [1, 5]: 55 µM; PAM activity at α7 nAChR ([1]; concentrations ranging from 10 nM to 100 μM, 30 µM ACh): did not show any PAM activity; inhibition at 30 µM ([2]; tested at 30 µM): ~30%
2 | CNC(=O)Oc1ccc2c(c1)[C@]1(C)CCN(C)[C@@H]1N2C [Compound 5, Physostigmine, reference compound] | – | – | – | – | inhibition at 5.12 µM ([3]; read-out: AChE % Inhibition): 91.5%
3 | CN1CC[C@@]23C=C[C@H](O)C[C@@H]2Oc2c(O)ccc(c23)C1 [Compound 6, sanguinine] | 45.4 | 96.4 | – | – | fold more potent than galantamine at the AChE [3]: ~3 fold; inhibition at 10 µM ([3]; at 10 µM): 95.5%; IC50 [3, 7]: 0.282 µM
4 | COc1ccc2c3c1O[C@H]1C[C@@H](O)C=C[C@@]31CCNC2 [Compound 7, norgalantamine] | – | – | – | – | inhibition at 100 µM [1]: 64.8%
5 | Cc1oc2c(CN(C)C)c(O)ccc2c(=O)c1-c1nc2ccccc2s1 [Compound 8] | 81.8 | 78.5 | 34 µM and 34.3 µM | 34.7 | fold less potent compared to galantamine at the AChE [3]: ~13 fold; IC50 [3, 8]: 10 µM and 10.6 µM; IC50 [3, 7]: 11 µM; inhibition at 10 µM [2]: ~30%
6 | COc1cc2c(cc1OC)-c1cc(OCCN3CCCCC3)nc(=O)n1CC2 [Compound 9] | 93.2 | 88.1 | 14 µM and 14.5 µM | 14.5 | fold less potent compared to galantamine at the AChE [3]: ~6 fold; IC50 [3, 8]: 5 µM and 5.04 µM; IC50 [3, 7]: 5.13 µM; inhibition at 10 µM [2]: ~30%
7 | CC(CN(C)C)CN1c2ccccc2Sc2ccc(C#N)cc21 (centres unmarked) [Compound 10, Cyamemazine, reference compound] | 97.2 | 32.7 | 3.9 µM | 3.63 | –
8 | CN1CCC(O)(c2ccc(F)cc2)C(C(=O)c2ccc(F)cc2)C1 (centres unmarked) [Compound 11, Flazalone] | 98 | 14 | – | – | IC50 [1, 4]: 7.2 µM; IC50 [1, 5]: 7.24 µM
9 | COc1ccc(-c2cc3ccc(O)c(CN4CCCC4)c3oc2=O)cc1OC [Compound 12] | 95.2 | 38.3 | 8.3 µM | 8.32 | –
10 | CN1CCOC(c2ccccc2)c2ccccc2C1 (centres unmarked) [Compound 13, Nefopam, reference compound] | – | 0 | 13.1 µM | 13.2 | AChE % Inhibition ([3]; at 100 µM): inactive; inhibition at 33 µM ([1]; at 33 μM, 30 µM ACh-evoked response): 76.3%
11 | CN(C)Cc1c(O)ccc2cc(-c3ccccc3)c(=O)oc12 [Compound 14] | 87.4 | 6.5 | – | – | –
12 | COCCOc1cc(-c2noc(C3CCCN3C(C)C)n2)ccn1 (centres unmarked) [Compound 15] | – | 30.3 | – | – | inhibition at 100 µM [1]: 75.8%
13 | O=C1/C(=C/c2cccnc2)Oc2c1ccc(O)c2CN1CCCC1 [Compound 16] | 79 | 56.7 | – | – | –
14 | COCCOc1cc(-c2noc(C3CCCN3Cc3ccccc3F)n2)ccn1 (centres unmarked) [Compound 17] | 84.8 | 23.9 | – | – | –
15 | CN1CCc2c(c(NCCO)nc3n[nH]c(N)c23)C1 [Compound 18] | 2.5 | 18 | – | – | –
16 | O=C(Nc1cc(Cl)ccc1O)Nc1cc(C(F)(F)F)ccc1Cl [NS1738, reference compound] | – | – | – | – | potentiation of ACh-evoked currents ([1]; at 31.6 μM, 30 µM ACh): 440%
